# Tests used:
# [1] = biological target: Phosphatidylinositol 4,5-bisphosphate 3-kinase catalytic subunit alpha isoform (Homo sapiens, UniProt P42336); experiment: Inhibition of recombinant human full length N-terminal GST-tagged PI3Kalpha (1 to 1068 residues)/PIK3R1 (1 to 724 residues) expressed in baculovirus expression system using PIP2 as substrate incubated for 1 hr by ADP-Glo assay
# [2] = Volume of distribution at steady state in Sprague-Dawley rat at 1 mg/kg, iv measured upto 24 hrs by LC-MS/MS analysis; format: ADME, organism-based; settings: in vivo, read-out: Vdss
# [3] = Tmax in Sprague-Dawley rat at 10 mg/kg, po measured upto 24 hrs by LC-MS/MS analysis; format: ADME, organism-based; settings: in vivo
# [4] = Oral bioavailability in Sprague-Dawley rat at 10 mg/kg measured upto 24 hrs by LC-MS/MS analysis; format: ADME, organism-based; settings: in vivo
# [5] = biological target: ALK tyrosine kinase receptor (Homo sapiens) (UniProt Q9UM73); experiment: Inhibition of human ALK at 100 nM using poly[Glu:Tyr] (4:1) as substrate by [gamma-33P]-ATP assay
# [6] = biological target: Mitogen-activated protein kinase kinase kinase 5 (Homo sapiens) (UniProt Q99683); experiment: Inhibition of human ASK1 at 100 nM using MBP as substrate by [gamma-33P]-ATP assay
# Sequence of Mitogen-activated protein kinase kinase kinase 5 (Homo sapiens) (Q99683 whole entry): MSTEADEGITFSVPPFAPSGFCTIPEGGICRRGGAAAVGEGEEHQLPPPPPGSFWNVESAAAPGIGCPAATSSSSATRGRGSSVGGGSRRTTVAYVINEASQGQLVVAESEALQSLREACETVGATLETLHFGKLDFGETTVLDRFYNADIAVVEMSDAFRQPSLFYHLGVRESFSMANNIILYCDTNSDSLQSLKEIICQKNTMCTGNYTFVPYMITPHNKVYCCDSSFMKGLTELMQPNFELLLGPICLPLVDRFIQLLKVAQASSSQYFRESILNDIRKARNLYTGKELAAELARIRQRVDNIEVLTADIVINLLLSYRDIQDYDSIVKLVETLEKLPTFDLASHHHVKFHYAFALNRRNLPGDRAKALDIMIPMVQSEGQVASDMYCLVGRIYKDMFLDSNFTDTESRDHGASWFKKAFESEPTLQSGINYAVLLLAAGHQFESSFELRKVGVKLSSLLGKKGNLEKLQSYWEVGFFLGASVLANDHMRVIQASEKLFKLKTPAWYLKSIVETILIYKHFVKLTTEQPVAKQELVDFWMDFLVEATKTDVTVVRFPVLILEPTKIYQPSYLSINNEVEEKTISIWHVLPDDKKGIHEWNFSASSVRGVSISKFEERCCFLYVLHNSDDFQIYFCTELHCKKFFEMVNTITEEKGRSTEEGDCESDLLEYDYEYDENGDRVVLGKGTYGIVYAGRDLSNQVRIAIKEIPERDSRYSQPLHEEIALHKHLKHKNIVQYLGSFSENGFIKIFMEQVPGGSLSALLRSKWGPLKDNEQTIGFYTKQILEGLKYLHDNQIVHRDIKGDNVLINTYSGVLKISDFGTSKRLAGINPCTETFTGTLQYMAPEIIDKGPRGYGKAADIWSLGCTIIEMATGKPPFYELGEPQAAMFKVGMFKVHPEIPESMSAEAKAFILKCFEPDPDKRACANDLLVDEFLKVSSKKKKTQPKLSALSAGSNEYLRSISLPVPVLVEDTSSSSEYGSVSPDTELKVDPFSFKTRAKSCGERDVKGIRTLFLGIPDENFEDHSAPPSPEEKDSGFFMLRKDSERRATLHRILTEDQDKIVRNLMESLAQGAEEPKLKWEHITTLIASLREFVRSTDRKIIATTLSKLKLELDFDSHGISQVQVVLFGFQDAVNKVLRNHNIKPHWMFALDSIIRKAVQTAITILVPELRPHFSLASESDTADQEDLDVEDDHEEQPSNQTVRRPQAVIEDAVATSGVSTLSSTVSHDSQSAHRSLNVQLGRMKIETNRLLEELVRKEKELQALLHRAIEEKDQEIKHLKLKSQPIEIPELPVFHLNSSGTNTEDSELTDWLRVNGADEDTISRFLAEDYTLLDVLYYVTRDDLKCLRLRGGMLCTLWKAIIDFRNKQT
# [7] = biological target: Tyrosine-protein kinase BTK (Homo sapiens) (UniProt Q06187); experiment: Inhibition of human BTK at 100 nM using KVEKIGEGTYGVVYK as substrate by [gamma-33P]-ATP assay
# Sequence of Tyrosine-protein kinase BTK (Homo sapiens) (Q06187 whole entry): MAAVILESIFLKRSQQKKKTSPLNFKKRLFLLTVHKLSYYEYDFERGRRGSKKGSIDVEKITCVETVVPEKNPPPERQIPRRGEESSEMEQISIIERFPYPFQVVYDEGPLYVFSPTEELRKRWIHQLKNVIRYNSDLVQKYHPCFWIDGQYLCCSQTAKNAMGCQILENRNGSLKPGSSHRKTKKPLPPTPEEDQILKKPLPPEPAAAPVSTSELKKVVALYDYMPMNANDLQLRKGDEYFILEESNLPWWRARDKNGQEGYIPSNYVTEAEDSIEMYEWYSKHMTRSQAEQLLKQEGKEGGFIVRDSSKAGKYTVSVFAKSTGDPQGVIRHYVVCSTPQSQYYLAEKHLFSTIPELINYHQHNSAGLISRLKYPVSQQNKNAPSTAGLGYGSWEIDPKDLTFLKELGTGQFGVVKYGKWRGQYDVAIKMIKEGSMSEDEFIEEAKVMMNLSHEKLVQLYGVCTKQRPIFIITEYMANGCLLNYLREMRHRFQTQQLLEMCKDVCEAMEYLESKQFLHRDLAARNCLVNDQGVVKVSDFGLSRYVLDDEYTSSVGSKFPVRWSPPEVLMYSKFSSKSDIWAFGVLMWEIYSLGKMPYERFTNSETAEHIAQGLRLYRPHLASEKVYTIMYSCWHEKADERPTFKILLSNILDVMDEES
# [8] = biological target: Cyclin-dependent kinase 14/Cyclin-Y (Homo sapiens) (UniProt O94921+Q8ND76); experiment: Inhibition of human CDK14/cyclin-Y at 100 nM using RB protein as substrate by [gamma-33P]-ATP assay; format: protein-complex assay
# [9] = biological target: CDK18/Cyclin Y (Homo sapiens) (UniProt Q07002+Q8ND76); experiment: Inhibition of human CDK18/cyclin-Y at 100 nM using RB protein as substrate by [gamma-33P]-ATP assay; format: protein-complex assay
# [10] = biological target: CDK7/Cyclin H/MNAT1 (Homo sapiens) (UniProt P51946+P50613+P51948); experiment: Inhibition of human CDK7/cyclin-H/MNAT1 at 100 nM using MBP as substrate by [gamma-33P]-ATP assay; format: protein-complex assay
# [11] = biological target: CDK9/Cyclin K (Homo sapiens) (UniProt P50750+O75909); experiment: Inhibition of human CDK9/cyclin-K at 100 nM using KTFCGTPEYLAPEVRREPRILSEEEQEMFRDFDYIADWC as substrate by [gamma-33P]-ATP assay; format: protein-complex assay
# [12] = biological target: Serine/threonine-protein kinase Chk2 (Homo sapiens) (UniProt O96017); experiment: Inhibition of human CHK2 at 100 nM using KKKVSRSGLYRSPSMPENLNRPR as substrate by [gamma-33P]-ATP assay
# [13] = biological target: Mitogen-activated protein kinase 1 (Homo sapiens) (UniProt P28482); experiment: Inhibition of human ERK2 at 100 nM using MBP as substrate by [gamma-33P]-ATP assay
# [14] = biological target: Fibroblast growth factor receptor 3 (Homo sapiens) (UniProt P22607); experiment: Inhibition of human FGFR3 at 100 nM using poly[Glu:Tyr] (4:1) as substrate by [gamma-33P]-ATP assay
# [15] = biological target: Mitogen-activated protein kinase kinase kinase 1 (Homo sapiens) (UniProt Q13233); experiment: Inhibition of human MEKK1 at 100 nM using MBP as substrate by [gamma-33P]-ATP assay
# [16] = biological target: Serine/threonine-protein kinase Nek6 (Homo sapiens) (UniProt Q9HC98); experiment: Inhibition of human NEK6 at 100 nM using casein as substrate by [gamma-33P]-ATP assay
# Sequence of Serine/threonine-protein kinase Nek6 (Homo sapiens) (Q9HC98 whole entry): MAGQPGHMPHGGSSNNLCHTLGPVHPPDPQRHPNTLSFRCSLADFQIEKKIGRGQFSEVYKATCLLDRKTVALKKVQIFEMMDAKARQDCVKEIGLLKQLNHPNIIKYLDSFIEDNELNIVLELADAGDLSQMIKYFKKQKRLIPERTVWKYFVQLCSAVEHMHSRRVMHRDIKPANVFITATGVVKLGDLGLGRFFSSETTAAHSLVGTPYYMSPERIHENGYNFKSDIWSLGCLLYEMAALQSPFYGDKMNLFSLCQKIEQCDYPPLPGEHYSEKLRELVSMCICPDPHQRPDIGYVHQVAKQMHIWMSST
# [17] = biological target: Serine/threonine-protein kinase Nek9 (Homo sapiens) (UniProt Q8TD19); experiment: Inhibition of human NEK9 at 100 nM using casein as substrate by [gamma-33P]-ATP assay
# [18] = biological target: Serine/threonine-protein kinase PAK 4 (Homo sapiens) (UniProt O96013); experiment: Inhibition of human PAK4 at 100 nM using RRRLSFAEPG as substrate by [gamma-33P]-ATP assay
# [19] = biological target: Protein kinase C beta type (Homo sapiens) (UniProt P05771); experiment: Inhibition of human PKCb2 at 100 nM using Histone H1 as substrate by [gamma-33P]-ATP assay
# Sequence of Protein kinase C beta type (Homo sapiens) (P05771 2-671 limits assumed): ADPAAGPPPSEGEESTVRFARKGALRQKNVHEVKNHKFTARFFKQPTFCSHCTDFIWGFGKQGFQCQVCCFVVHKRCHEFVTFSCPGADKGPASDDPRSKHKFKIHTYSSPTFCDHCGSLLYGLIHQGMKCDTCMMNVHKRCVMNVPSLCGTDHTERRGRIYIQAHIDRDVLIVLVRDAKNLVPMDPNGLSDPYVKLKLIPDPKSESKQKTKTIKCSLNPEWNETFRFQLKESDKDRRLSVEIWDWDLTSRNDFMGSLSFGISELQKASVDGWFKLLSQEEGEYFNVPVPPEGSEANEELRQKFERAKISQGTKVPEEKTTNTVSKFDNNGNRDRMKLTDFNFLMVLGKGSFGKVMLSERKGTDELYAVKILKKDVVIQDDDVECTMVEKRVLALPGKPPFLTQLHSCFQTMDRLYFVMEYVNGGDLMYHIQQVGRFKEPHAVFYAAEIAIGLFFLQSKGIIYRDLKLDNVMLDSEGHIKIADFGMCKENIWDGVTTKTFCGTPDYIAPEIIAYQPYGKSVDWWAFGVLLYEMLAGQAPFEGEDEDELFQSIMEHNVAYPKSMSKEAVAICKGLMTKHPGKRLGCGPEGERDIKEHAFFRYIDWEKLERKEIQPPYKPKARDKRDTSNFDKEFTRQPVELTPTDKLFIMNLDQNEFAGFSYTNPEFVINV
# [20] = biological target: cGMP-dependent protein kinase 1 (Homo sapiens) (UniProt Q13976); experiment: Inhibition of human PKG1alpha at 100 nM using LRRASLG as substrate by [gamma-33P]-ATP assay
# [21] = biological target: Serine/threonine-protein kinase N2 (Homo sapiens) (UniProt Q16513); experiment: Inhibition of human PKN2 at 100 nM using KKLNRTLSVA as substrate by [gamma-33P]-ATP assay
# [22] = biological target: Serine/threonine-protein kinase Sgk2 (Homo sapiens) (UniProt Q9HBY8); experiment: Inhibition of human SGK2 at 100 nM using KGSGSGRPRTSSFAEG as substrate by [gamma-33P]-ATP assay
# [23] = biological target: Tyrosine-protein kinase Srms (Homo sapiens) (UniProt Q9H3Y6); experiment: Inhibition of human SRMS at 100 nM using poly[Glu:Tyr] (4:1) as substrate by [gamma-33P]-ATP assay
# [24] = biological target: SRSF protein kinase 1 (Homo sapiens) (UniProt Q96SB4); experiment: Inhibition of human SRPK1 at 100 nM using GRSRSRSRSR as substrate by [gamma-33P]-ATP assay
# Sequence of SRSF protein kinase 1 (Homo sapiens) (Q96SB4 whole entry): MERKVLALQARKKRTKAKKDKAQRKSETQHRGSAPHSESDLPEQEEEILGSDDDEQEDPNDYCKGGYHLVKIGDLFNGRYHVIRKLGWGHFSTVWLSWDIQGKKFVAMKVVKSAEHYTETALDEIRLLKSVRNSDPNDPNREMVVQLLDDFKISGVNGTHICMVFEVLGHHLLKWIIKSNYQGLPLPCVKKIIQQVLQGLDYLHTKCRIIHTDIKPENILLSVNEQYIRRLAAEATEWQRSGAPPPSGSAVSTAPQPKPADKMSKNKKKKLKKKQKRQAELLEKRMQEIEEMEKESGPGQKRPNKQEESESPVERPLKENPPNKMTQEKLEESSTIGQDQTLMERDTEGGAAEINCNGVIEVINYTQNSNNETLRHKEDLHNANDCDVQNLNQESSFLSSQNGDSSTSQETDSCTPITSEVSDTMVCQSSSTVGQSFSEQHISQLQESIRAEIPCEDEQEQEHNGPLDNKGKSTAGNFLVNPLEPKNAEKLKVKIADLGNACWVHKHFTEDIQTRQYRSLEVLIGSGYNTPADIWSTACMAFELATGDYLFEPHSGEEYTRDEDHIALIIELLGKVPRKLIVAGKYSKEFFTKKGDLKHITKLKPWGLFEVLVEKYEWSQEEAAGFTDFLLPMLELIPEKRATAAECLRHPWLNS
# [25] = biological target: TRAF2 and NCK-interacting protein kinase (Homo sapiens) (UniProt Q9UKE5); experiment: Inhibition of human TNIK at 100 nM using RLGRDKYKTLRQIRQ as substrate by [gamma-33P]-ATP assay
# [26] = biological target: BDNF/NT-3 growth factors receptor (Homo sapiens) (UniProt Q16620); experiment: Inhibition of human TRKB at 100 nM using poly[Glu:Tyr] (4:1) as substrate by [gamma-33P]-ATP assay
# Sequence of BDNF/NT-3 growth factors receptor (Homo sapiens) (Q16620 32-822 limits assumed): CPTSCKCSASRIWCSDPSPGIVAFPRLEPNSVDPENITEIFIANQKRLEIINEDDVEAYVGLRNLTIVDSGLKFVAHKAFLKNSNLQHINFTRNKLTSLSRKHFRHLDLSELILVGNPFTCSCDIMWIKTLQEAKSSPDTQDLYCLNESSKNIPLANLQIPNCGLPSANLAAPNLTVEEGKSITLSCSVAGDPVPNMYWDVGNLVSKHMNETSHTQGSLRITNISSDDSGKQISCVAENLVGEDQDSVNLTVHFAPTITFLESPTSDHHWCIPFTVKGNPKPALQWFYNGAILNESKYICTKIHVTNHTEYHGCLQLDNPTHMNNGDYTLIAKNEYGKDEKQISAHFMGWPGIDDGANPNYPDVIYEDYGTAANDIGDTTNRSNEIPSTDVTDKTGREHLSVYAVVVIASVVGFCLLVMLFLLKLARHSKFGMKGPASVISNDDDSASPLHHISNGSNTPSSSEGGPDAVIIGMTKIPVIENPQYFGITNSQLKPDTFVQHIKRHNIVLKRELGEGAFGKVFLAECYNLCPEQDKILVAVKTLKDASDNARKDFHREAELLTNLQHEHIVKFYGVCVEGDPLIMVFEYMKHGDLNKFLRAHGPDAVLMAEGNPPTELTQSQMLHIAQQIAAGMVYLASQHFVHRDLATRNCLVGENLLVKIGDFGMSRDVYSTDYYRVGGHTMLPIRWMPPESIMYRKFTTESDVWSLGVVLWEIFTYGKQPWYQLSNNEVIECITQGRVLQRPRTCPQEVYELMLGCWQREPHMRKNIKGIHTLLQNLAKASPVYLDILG
# [27] = biological target: Wee1-like protein kinase (Homo sapiens) (UniProt P30291); experiment: Inhibition of human WEE1 at 100 nM using MBP as substrate by [gamma-33P]-ATP assay
# [28] = biological target: Serine/threonine-protein kinase WNK1 (Homo sapiens) (UniProt Q9H4A3); experiment: Inhibition of human WNK1 at 100 nM using MBP as substrate by [gamma-33P]-ATP assay
# [29] = biological target: Death-associated protein kinase 3 (Homo sapiens) (UniProt O43293); experiment: Inhibition of human ZIPK at 100 nM using KKLNRTLSFAEPG as substrate by [gamma-33P]-ATP assay
# [30] = biological target: eIF-2-alpha kinase GCN2 (Homo sapiens) (UniProt Q9P2K8); experiment: Inhibition of human EIF2AK4 at 100 nM using MBP as substrate by [gamma-33P]-ATP assay
# [31] = biological target: [Pyruvate dehydrogenase (acetyl-transferring)] kinase isozyme 3, mitochondrial (Homo sapiens) (UniProt Q15120); experiment: Inhibition of human PDK3 at 100 nM using MBP as substrate by [gamma-33P]-ATP assay
# Sequence of [Pyruvate dehydrogenase (acetyl-transferring)] kinase isozyme 3, mitochondrial (Homo sapiens) (Q15120 whole entry, looked up): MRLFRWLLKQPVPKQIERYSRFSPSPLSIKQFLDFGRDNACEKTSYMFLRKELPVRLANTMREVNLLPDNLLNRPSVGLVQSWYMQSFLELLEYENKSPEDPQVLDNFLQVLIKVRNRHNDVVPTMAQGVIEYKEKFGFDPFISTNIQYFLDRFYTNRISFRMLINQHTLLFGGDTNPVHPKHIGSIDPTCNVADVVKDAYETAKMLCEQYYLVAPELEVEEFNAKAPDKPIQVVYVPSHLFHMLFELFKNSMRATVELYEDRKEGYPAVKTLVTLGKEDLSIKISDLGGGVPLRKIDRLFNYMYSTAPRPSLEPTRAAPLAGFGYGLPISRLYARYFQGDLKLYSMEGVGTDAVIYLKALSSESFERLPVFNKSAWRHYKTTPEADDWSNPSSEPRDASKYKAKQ
compound,measurement,setting,value
COc1ccc(N2C(=O)COc3ccc(-c4cnc(OC)c(NS(=O)(=O)c5ccc(F)cc5)c4)cc32)cc1,IC50,[1],0.63 nM
same,Vd,[2],1.2 L/kg
same,Tmax,[3],2.67 h
same,bioavailability,[4],24.1%
same,inhibition,[5],2.94%
same,inhibition,[6],-8.49%
same,inhibition,[7],14.8%
same,inhibition,[8],4.76%
same,inhibition,[9],9.02%
same,inhibition,[10],-3.2%
same,inhibition,[11],9.26%
same,inhibition,[12],6.04%
same,inhibition,[13],17.4%
same,inhibition,[14],-7.49%
same,inhibition,[15],6.33%
same,inhibition,[16],-2.82%
same,inhibition,[17],10.4%
same,inhibition,[18],7.74%
same,inhibition,[19],-6.74%
same,inhibition,[20],4.25%
same,inhibition,[21],6.6%
same,inhibition,[22],5.89%
same,inhibition,[23],14.2%
same,inhibition,[24],1.44%
same,inhibition,[25],15.6%
same,inhibition,[26],-0.11%
same,inhibition,[27],6.18%
same,inhibition,[28],13.9%
same,inhibition,[29],0.68%
same,inhibition,[30],8.65%
same,inhibition,[31],8.78%

# From ChEMBL document CHEMBL4364276, “Discovery of 4-phenyl-2H-benzo[b][1,4]oxazin-3(4H)-one derivatives as potent and orally active PI3K/mTOR dual inhibitors” (Eur J Med Chem, 2019)
